In brackets after ≈: the same amount, converted by molar mass. Read-outs that look alike come from different tables or passages of the source. Starred links: 1 amine or outer side, 2 acyl side, 3 side chain; linkers in the order of their positions; H or OH if unused. Positions of bridges follow the written chain, without caps; N, C: chain ends. Non-standard residues stand in square brackets, D forms with d. Residues, ends and D or L forms follow the SMILES beside them. Chains are numbered I, II in the order given. *: point of attachment. X3 = CC(=O)NCCNc1nc(NCCNC(C)=O)nc(N([C@@H](CC(C)C)C(=O)[*:2])[*:1])n1; X4 = CC(=O)NCCNc1nc(NCCNC(C)=O)nc(Oc2ccc(C(=O)*)cc2)n1; X2 = CC[C@H](C)CCCCC(=O)*; Dab = NCC[C@H](N)C(=O)O
What was measured:
Assay type in all cases: cell-based
E. coli 208691 = assay: microbe, parasite or virus in culture
Method: (§1) E. coli ATCC 25922, P. aeruginosa ATCC 27853, S. aureus ATCC 29213, P. aeruginosa 666 SJD (ciprofloxacin-resistant), P. aeruginosa P12, P13, P15, P16 and P17 (MDR isolates) and E. coli 7987, 5545, 8248, 13974, 7259 and 208691 (MDR isolates) from our own collection were included in the present study.
(§2) The antimicrobial activity of the dendrimers was evaluated against E. coli ATCC 25922, P. aeruginosa ATCC 27853 and S. aureus ATCC 29213 strains. The MIC values were determined by the broth microdilution method. Briefly, the different strains were grown in Muller Hinton broth cation adjusted (MHBCA) medium overnight at 37 °C with shaking at 200 rpm. The bacterial cultures were then adjusted to OD625nm of 0.08–0.1, and 5 μL of each diluted suspension was added to 96-well plates previously filled with MHBCA and serially diluted peptides. Plates were incubated for 24 h at 37 °C. Finally, the MIC was determined macroscopically, based on the visual turbidity of the wells.

P. aeruginosa P15 = assay: microbe, parasite or virus in culture
Method: as §1, §2

P. aeruginosa P13 = assay: microbe, parasite or virus in culture
Method: as §1, §2

E. coli 13974 = assay: microbe, parasite or virus in culture; settings: Escherichia coli; MDR isolate E. coli 13974; read-out: MIC
Method: as §1, §2

P. aeruginosa P16 = assay: microbe, parasite or virus in culture; settings: MDR isolate P. aeruginosa P16
Method: as §1, §2

P. aeruginosa P12 = assay: microbe, parasite or virus in culture; settings: MDR isolate P. aeruginosa P12
Method: as §1, §2

E. coli 8248 = assay: microbe, parasite or virus in culture; settings: Escherichia coli; MDR isolate E. coli 8248; read-out: MIC
Method: as §1, §2

E. coli 7987 = assay: microbe, parasite or virus in culture; settings: Escherichia coli; MDR isolate E. coli 7987; read-out: MIC
Method: as §1, §2

E. coli 7259 = assay: microbe, parasite or virus in culture; settings: Escherichia coli; MDR isolate E. coli 7259; read-out: MIC
Method: as §1, §2

P. aeruginosa P17 = assay: microbe, parasite or virus in culture
Method: as §1, §2

E. coli 5545 = assay: microbe, parasite or virus in culture; settings: Escherichia coli; MDR isolate E. coli 5545; read-out: MIC
Method: as §1, §2

S. aureus ATCC 29213 = settings: ATCC 29213, 24 h
Method: as §2

E. coli ATCC 25922 = settings: ATCC 25922, 24 h
Method: as §2

P. aeruginosa ATCC 27853 = settings: ATCC 27853, 24 h
Method: as §2

[1] = Pseudomonas aeruginosa, read-out: MIC

| SMILES | MIC S. aureus ATCC 29213 (S. aureus ATCC 29213) | MIC E. coli ATCC 25922 (E. coli ATCC 25922) | MIC P. aeruginosa ATCC 27853 (P. aeruginosa ATCC 27853) | further results |
| --- | --- | --- | --- | --- |
| O=C(O)c1cn(C2CC2)c2cc(N3CCNCC3)c(F)cc2c1=O [Ciprofloxacin, reference compound] |  |  |  | MIC (E. coli 208691; Escherichia coli, 208691): 256 µg/mL (≈ 773 µM); MIC (P. aeruginosa P15; Pseudomonas aeruginosa, P15): 256 µg/mL (≈ 773 µM); MIC (P. aeruginosa P13; Pseudomonas aeruginosa, P13): 128 µg/mL (≈ 386 µM); MIC (E. coli 13974): 32 µg/mL (≈ 96.6 µM); MIC (P. aeruginosa P16; [1]): 64 µg/mL (≈ 193 µM); MIC (P. aeruginosa P12; [1]): 64 µg/mL (≈ 193 µM); MIC (E. coli 8248): 32 µg/mL (≈ 96.6 µM); MIC (E. coli 7987): 32 µg/mL (≈ 96.6 µM); MIC (E. coli 7259): 32 µg/mL (≈ 96.6 µM); MIC (P. aeruginosa P17; Pseudomonas aeruginosa, P17): 256 µg/mL (≈ 773 µM); MIC (E. coli 5545): 64 µg/mL (≈ 193 µM) |
| CC(=O)NCCNc1nc(NCCNC(C)=O)nc(N[C@@H](CC(C)C)C(=O)N[C@@H](CCCCN)C(=O)N[C@@H](CC(C)C)C(=O)N[C@@H](CCCCN)C(=O)N[C@@H](CC(C)C)C(=O)N[C@@H](CCCCN)C(N)=O)n1 [E, (Ac-EDA)2-TA-(LK)3-NH2] (H-[X3]KLKLK-NH2) | >64 µg/mL | >64 µg/mL | >64 µg/mL |  |
| CC(C)C[C@H](NC(=O)[C@H](CCCCN)NC(=O)[C@H](CC(C)C)NC(=O)[C@H](CCCCN)NC(=O)[C@H](CC(C)C)NC(=O)[C@H](CCCCNC(=O)[C@H](CCCCN)NC(=O)[C@H](CC(C)C)NC(=O)[C@H](CCCCN)NC(=O)[C@H](CC(C)C)NC(=O)[C@H](CCCCN)NC(=O)[C@@H](N)CC(C)C)NC(=O)[C@H](CCCCN)NC(=O)[C@H](CC(C)C)NC(=O)[C@H](CCCCN)NC(=O)[C@H](CC(C)C)NC(=O)[C@H](CCCCN)NC(=O)[C@@H](N)CC(C)C)C(=O)N[C@@H](CCCCN)C(N)=O [F, H-[(LK)3]2-K-(LK)3-NH2] (I: H-LKLKLKKLKLKLK-NH2 / II: H-LKLKLK; amide I:7-II:C) | 64 µg/mL (≈ 27.6 µM) | 32 µg/mL (≈ 13.8 µM) | >64 µg/mL |  |
| CC(=O)NCCNc1nc(NCCNC(C)=O)nc(Oc2ccc(C(=O)N[C@@H](CC(C)C)C(=O)N[C@@H](CCCCN)C(=O)N[C@@H](CC(C)C)C(=O)N[C@@H](CCCCN)C(=O)N[C@@H](CC(C)C)C(=O)N[C@@H](CCCCN)C(N)=O)cc2)n1 [D, (Ac-EDA)2-TA-PHBA-(LK)3-NH2] (X4-LKLKLK-NH2) | >64 µg/mL | >64 µg/mL | >64 µg/mL |  |
| CC(=O)NCCNc1nc(NCCNC(C)=O)nc(Oc2ccc(C(=O)NCC(=O)N[C@@H](Cc3ccccc3)C(=O)N[C@@H](CC(C)C)C(N)=O)cc2)n1 [C, (Ac-EDA)2-TA-PHBA-GFL-NH2] | >64 µg/mL | >64 µg/mL | >64 µg/mL |  |
| CC[C@H](C)CCCCC(=O)N[C@@H](CCN)C(=O)N[C@H](C(=O)N[C@@H](CCN)C(=O)N[C@H]1CCNC(=O)[C@H]([C@@H](C)O)NC(=O)[C@H](CCN)NC(=O)[C@H](CCN)NC(=O)[C@H](CC(C)C)NC(=O)[C@@H](CC(C)C)NC(=O)[C@H](CCN)NC1=O)[C@@H](C)O [Colistin, reference compound] (X2-[Dab]T[Dab][Dab][Dab][dL]L[Dab][Dab]T; lactam 4-C (inferred); N-terminus assumed) |  |  |  | MIC (E. coli 208691; MDR isolate E. coli 208691): 0.5 µg/mL (≈ 0.428 µM); MIC (P. aeruginosa P15; MDR isolate P. aeruginosa P15): >128 µg/mL; MIC (P. aeruginosa P13; MDR isolate P. aeruginosa P13): 32 µg/mL (≈ 27.4 µM); MIC (P. aeruginosa P16): 16 µg/mL (≈ 13.7 µM); MIC (P. aeruginosa P12): 64 µg/mL (≈ 54.7 µM); MIC (P. aeruginosa P17; MDR isolate P. aeruginosa P17): >8 µg/mL |
| CC(C)C[C@H](NC(=O)[C@H](CCCCN)NC(=O)[C@H](CC(C)C)NC(=O)[C@H](CCCCN)NC(=O)[C@H](CC(C)C)NC(=O)[C@H](CCCCN)NC(=O)[C@H](CC(C)C)NC(=O)[C@H](CCCCN)NC(=O)[C@H](CC(C)C)NC(=O)[C@H](CCCCN)NC(=O)[C@H](CC(C)C)NC(=O)[C@H](CCCCN)NC(=O)[C@H](CC(C)C)NC(=O)[C@H](CCCCN)NC(=O)[C@H](CC(C)C)NC(=O)[C@H](CCCCN)NC(=O)[C@@H](N)CC(C)C)C(=O)N[C@@H](CCCCN)C(N)=O [G, H-(Leu-Lys)9-NH2] (H-LKLKLKLKLKLKLKLKLK-NH2) | >64 µg/mL | >64 µg/mL | >64 µg/mL |  |
| CC(C)C[C@H](NC(=O)[C@H](CCCCN)NC(=O)[C@H](CC(C)C)NC(=O)[C@H](CCCCN)NC(=O)[C@@H](N)CC(C)C)C(=O)N[C@@H](CCCCN)C(N)=O [A, H-Leu-Lys-Leu-Lys-Leu-Lys-NH2] (H-LKLKLK-NH2) | >64 µg/mL | >64 µg/mL | >64 µg/mL |  |
| CC(C)C[C@H](NC(=O)[C@H](Cc1ccccc1)NC(=O)CNC(=O)c1ccc(Oc2nc(NCCNC(=O)[C@H](CCCCN)NC(=O)[C@H](CC(C)C)NC(=O)[C@H](CCCCN)NC(=O)[C@H](CC(C)C)NC(=O)[C@H](CCCCN)NC(=O)[C@@H](N)CC(C)C)nc(NCCNC(=O)[C@H](CCCCN)NC(=O)[C@H](CC(C)C)NC(=O)[C@H](CCCCN)NC(=O)[C@H](CC(C)C)NC(=O)[C@H](CCCCN)NC(=O)[C@@H](N)CC(C)C)n2)cc1)C(N)=O [B, H-[(LK)3-EDA]2-TA-PHBA-GFL-NH2] | >64 µg/mL | 64 µg/mL (≈ 30.5 µM) | 32 µg/mL (≈ 15.3 µM) |  |
